Experimental data as given in PubChem BioAssay (NCI).
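Exposure lasted 48 hours, with cells grown in 96-well plates and compounds tested at five concentrations. TGI: total growth inhibition.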

Legend:
Test in all cases: inhibition of tumour cell growth, NCI panel, 48 h
M14 melanoma = tested on: M14 melanoma
SK-MEL-28 melanoma = tested on: SK-MEL-28 melanoma
LXFL 529 NSCLC = tested on: LXFL 529 NSCLC
SNB-19 CNS = tested on: SNB-19 CNS
MALME-3M melanoma = tested on: MALME-3M melanoma
SF-539 CNS = tested on: SF-539 CNS
DLD-1 colon = tested on: DLD-1 colon
HOP-18 NSCLC = tested on: HOP-18 NSCLC
ACHN renal = tested on: ACHN renal
U251 CNS = tested on: U251 CNS
HOP-62 NSCLC = tested on: HOP-62 NSCLC
SF-295 CNS = tested on: SF-295 CNS
A498 renal = tested on: A498 renal
EKVX NSCLC = tested on: EKVX NSCLC
HCT-15 colon = tested on: HCT-15 colon
RPMI-8226 leukemia = tested on: RPMI-8226 leukemia
CCRF-CEM leukemia = tested on: CCRF-CEM leukemia
NCI-H226 lung = tested on: NCI-H226 lung
K-562 leukemia = tested on: K-562 leukemia
NCI-H460 lung = tested on: NCI-H460 lung
M19-MEL melanoma = tested on: M19-MEL melanoma
RXF 393 renal = tested on: RXF 393 renal
NCI-H23 lung = tested on: NCI-H23 lung
TK-10 renal = tested on: TK-10 renal
SK-MEL-2 melanoma = tested on: SK-MEL-2 melanoma
OVCAR-8 ovarian = tested on: OVCAR-8 ovarian
OVCAR-4 ovarian = tested on: OVCAR-4 ovarian
SF-268 CNS = tested on: SF-268 CNS
SK-OV-3 ovarian = tested on: SK-OV-3 ovarian
XF 498 CNS = tested on: XF 498 CNS
786-0 renal = tested on: 786-0 renal
LOX IMVI melanoma = tested on: LOX IMVI melanoma
OVCAR-5 ovarian = tested on: OVCAR-5 ovarian
UACC-257 melanoma = tested on: UACC-257 melanoma
UACC-62 melanoma = tested on: UACC-62 melanoma
KM20L2 colon = tested on: KM20L2 colon
MOLT-4 leukemia = tested on: MOLT-4 leukemia
SR leukemia = tested on: SR leukemia
COLO 205 colon = tested on: COLO 205 colon
A549 NSCLC = tested on: A549 NSCLC
OVCAR-3 ovarian = tested on: OVCAR-3 ovarian
SK-MEL-5 melanoma = tested on: SK-MEL-5 melanoma
CAKI-1 renal = tested on: CAKI-1 renal
IGROV1 ovarian = tested on: IGROV1 ovarian
HL-60(TB) leukemia = tested on: HL-60(TB) leukemia
UO-31 renal = tested on: UO-31 renal
KM12 colon = tested on: KM12 colon
SN12C renal = tested on: SN12C renal
HT29 colon = tested on: HT29 colon
RXF-631 renal = tested on: RXF-631 renal
NCI-H522 lung = tested on: NCI-H522 lung
DMS 273 small cell lung = tested on: DMS 273 small cell lung
HCT-116 colon = tested on: HCT-116 colon
SNB-75 CNS = tested on: SNB-75 CNS
DMS 114 small cell lung = tested on: DMS 114 small cell lung
HCC-2998 colon = tested on: HCC-2998 colon
HOP-92 NSCLC = tested on: HOP-92 NSCLC
SW-620 colon = tested on: SW-620 colon
SNB-78 CNS = tested on: SNB-78 CNS

CCOC(=O)C1(C/C=C(/C)Cl)CCCC1=O (stereo unspecified)
TGI (M14 melanoma): > 100 µM
TGI (SK-MEL-28 melanoma): > 100 µM
TGI (LXFL 529 NSCLC): > 100 µM
TGI (SNB-19 CNS): > 100 µM
TGI (MALME-3M melanoma): > 100 µM
TGI (SF-539 CNS): > 100 µM
TGI (DLD-1 colon): > 100 µM
TGI (HOP-18 NSCLC): > 100 µM
TGI (ACHN renal): > 100 µM
TGI (U251 CNS): > 100 µM
TGI (HOP-62 NSCLC): > 100 µM
TGI (SF-295 CNS): > 100 µM
TGI (A498 renal): > 100 µM
TGI (EKVX NSCLC): > 100 µM
TGI (HCT-15 colon): > 100 µM
TGI (RPMI-8226 leukemia): 53.6 µM
TGI (CCRF-CEM leukemia): > 100 µM
TGI (NCI-H226 lung): > 100 µM
TGI (K-562 leukemia): > 100 µM
TGI (NCI-H460 lung): > 100 µM
TGI (M19-MEL melanoma): > 100 µM
TGI (RXF 393 renal): > 100 µM
TGI (NCI-H23 lung): > 100 µM
TGI (TK-10 renal): > 100 µM
TGI (SK-MEL-2 melanoma): > 100 µM
TGI (OVCAR-8 ovarian): > 100 µM
TGI (OVCAR-4 ovarian): > 100 µM
TGI (SF-268 CNS): > 100 µM
TGI (SK-OV-3 ovarian): > 100 µM
TGI (XF 498 CNS): > 100 µM
TGI (786-0 renal): > 100 µM
TGI (LOX IMVI melanoma): > 100 µM
TGI (OVCAR-5 ovarian): > 100 µM
TGI (UACC-257 melanoma): > 100 µM
TGI (UACC-62 melanoma): > 100 µM
TGI (KM20L2 colon): > 100 µM
TGI (MOLT-4 leukemia): > 100 µM
TGI (SR leukemia): 45.7 µM
TGI (COLO 205 colon): > 100 µM
TGI (A549 NSCLC): > 100 µM
TGI (OVCAR-3 ovarian): > 100 µM
TGI (SK-MEL-5 melanoma): > 100 µM
TGI (CAKI-1 renal): > 100 µM
TGI (IGROV1 ovarian): > 100 µM
TGI (HL-60(TB) leukemia): > 100 µM
TGI (UO-31 renal): > 100 µM
TGI (KM12 colon): > 100 µM
TGI (SN12C renal): > 100 µM
TGI (HT29 colon): > 100 µM
TGI (RXF-631 renal): > 100 µM
TGI (NCI-H522 lung): > 100 µM
TGI (DMS 273 small cell lung): > 100 µM
TGI (HCT-116 colon): > 100 µM
TGI (SNB-75 CNS): > 100 µM
TGI (DMS 114 small cell lung): > 100 µM

COc1ccc2c(c1)N1CCc3cc(OC)c(OC)cc3C1C2 (stereo unspecified)
TGI (SK-MEL-28 melanoma): > 100 µM
TGI (LXFL 529 NSCLC): > 100 µM
TGI (SNB-19 CNS): > 100 µM
TGI (MALME-3M melanoma): > 100 µM
TGI (SF-539 CNS): > 100 µM
TGI (DLD-1 colon): > 100 µM
TGI (HOP-18 NSCLC): > 100 µM
TGI (ACHN renal): > 100 µM
TGI (U251 CNS): > 100 µM
TGI (HOP-62 NSCLC): > 100 µM
TGI (SF-295 CNS): > 100 µM
TGI (A498 renal): > 100 µM
TGI (EKVX NSCLC): > 100 µM
TGI (CCRF-CEM leukemia): > 100 µM
TGI (NCI-H226 lung): 98.7 µM
TGI (K-562 leukemia): > 100 µM
TGI (HCC-2998 colon): > 100 µM
TGI (NCI-H460 lung): > 100 µM
TGI (M19-MEL melanoma): > 100 µM
TGI (RXF 393 renal): > 100 µM
TGI (NCI-H23 lung): > 100 µM
TGI (TK-10 renal): > 100 µM
TGI (HOP-92 NSCLC): > 100 µM
TGI (SK-MEL-2 melanoma): > 100 µM
TGI (OVCAR-8 ovarian): > 100 µM
TGI (SW-620 colon): > 100 µM
TGI (OVCAR-4 ovarian): > 100 µM
TGI (SF-268 CNS): > 100 µM
TGI (SK-OV-3 ovarian): > 100 µM
TGI (XF 498 CNS): > 100 µM
TGI (SNB-78 CNS): > 100 µM
TGI (786-0 renal): > 100 µM
TGI (LOX IMVI melanoma): > 100 µM
TGI (UACC-257 melanoma): > 100 µM
TGI (UACC-62 melanoma): > 100 µM
TGI (KM20L2 colon): > 100 µM
TGI (MOLT-4 leukemia): > 100 µM
TGI (SR leukemia): > 100 µM
TGI (COLO 205 colon): > 100 µM
TGI (A549 NSCLC): > 100 µM
TGI (CAKI-1 renal): > 100 µM
TGI (IGROV1 ovarian): > 100 µM
TGI (HL-60(TB) leukemia): > 100 µM
TGI (UO-31 renal): > 100 µM
TGI (KM12 colon): > 100 µM
TGI (SN12C renal): > 100 µM
TGI (HT29 colon): > 100 µM
TGI (NCI-H522 lung): > 100 µM
TGI (DMS 273 small cell lung): > 100 µM
TGI (DMS 114 small cell lung): > 100 µM

COc1cc([C@@H]2c3cc4c(cc3C(N)C3COC(=O)[C@@H]32)OCO4)cc(OC)c1O (stereo partly specified)
TGI (LXFL 529 NSCLC): > 100 µM
TGI (SNB-19 CNS): 0.646 µM
TGI (SF-539 CNS): 0.586 µM
TGI (DLD-1 colon): > 100 µM
TGI (HOP-18 NSCLC): > 100 µM
TGI (ACHN renal): > 100 µM
TGI (HOP-62 NSCLC): > 100 µM
TGI (SF-295 CNS): > 100 µM
TGI (HCT-15 colon): > 100 µM
TGI (RPMI-8226 leukemia): > 100 µM
TGI (CCRF-CEM leukemia): > 100 µM
TGI (K-562 leukemia): > 100 µM
TGI (M19-MEL melanoma): > 100 µM
TGI (NCI-H23 lung): > 100 µM
TGI (TK-10 renal): > 100 µM
TGI (SW-620 colon): > 100 µM
TGI (OVCAR-4 ovarian): > 100 µM
TGI (SF-268 CNS): > 100 µM
TGI (786-0 renal): > 100 µM
TGI (LOX IMVI melanoma): > 100 µM
TGI (UACC-257 melanoma): > 100 µM
TGI (MOLT-4 leukemia): 1.17 µM
TGI (SR leukemia): 0.428 µM
TGI (COLO 205 colon): 0.362 µM
TGI (A549 NSCLC): > 100 µM
TGI (IGROV1 ovarian): > 100 µM
TGI (HL-60(TB) leukemia): 0.555 µM
TGI (UO-31 renal): > 100 µM
TGI (SN12C renal): > 100 µM
TGI (RXF-631 renal): 0.606 µM
TGI (HCT-116 colon): > 100 µM

COc1ccc2c(CN3CCCCC3CO)cc3cc(OC)c(OC)cc3c2c1 (stereo unspecified)
TGI (M14 melanoma): 25 µM
TGI (SK-MEL-28 melanoma): 18.6 µM
TGI (LXFL 529 NSCLC): 16.8 µM
TGI (SNB-19 CNS): 16.5 µM
TGI (MALME-3M melanoma): 16.9 µM
TGI (SF-539 CNS): 15 µM
TGI (DLD-1 colon): > 100 µM
TGI (HOP-18 NSCLC): 38 µM
TGI (ACHN renal): 31.1 µM
TGI (U251 CNS): 18.3 µM
TGI (HOP-62 NSCLC): 20.7 µM
TGI (SF-295 CNS): 13.6 µM
TGI (A498 renal): 12.7 µM
TGI (EKVX NSCLC): 19.7 µM
TGI (HCT-15 colon): 20.8 µM
TGI (RPMI-8226 leukemia): 33 µM
TGI (CCRF-CEM leukemia): 18.8 µM
TGI (NCI-H226 lung): 16.7 µM
TGI (K-562 leukemia): 10.1 µM
TGI (HCC-2998 colon): 21 µM
TGI (M19-MEL melanoma): 11.4 µM
TGI (RXF 393 renal): 18 µM
TGI (NCI-H23 lung): 16.9 µM
TGI (TK-10 renal): 27.5 µM
TGI (HOP-92 NSCLC): 9.82 µM
TGI (SK-MEL-2 melanoma): 17.8 µM
TGI (OVCAR-8 ovarian): 19.9 µM
TGI (SW-620 colon): 15.7 µM
TGI (SF-268 CNS): 20.1 µM
TGI (SK-OV-3 ovarian): 70.2 µM
TGI (XF 498 CNS): 18.9 µM
TGI (SNB-78 CNS): 23.1 µM
TGI (786-0 renal): 17.3 µM
TGI (LOX IMVI melanoma): 13.7 µM
TGI (OVCAR-5 ovarian): 12 µM
TGI (UACC-257 melanoma): 13.7 µM
TGI (UACC-62 melanoma): 25.7 µM
TGI (KM20L2 colon): 15.2 µM
TGI (MOLT-4 leukemia): 14.9 µM
TGI (SR leukemia): 22.2 µM
TGI (COLO 205 colon): 10.3 µM
TGI (A549 NSCLC): 14.2 µM
TGI (OVCAR-3 ovarian): 19.4 µM
TGI (SK-MEL-5 melanoma): 20.6 µM
TGI (IGROV1 ovarian): 61.1 µM
TGI (HL-60(TB) leukemia): 12.5 µM
TGI (UO-31 renal): 12.5 µM
TGI (KM12 colon): 16.2 µM
TGI (SN12C renal): 26.2 µM
TGI (HT29 colon): 11.4 µM
TGI (NCI-H522 lung): 7.72 µM
TGI (DMS 273 small cell lung): 11.7 µM
TGI (HCT-116 colon): 13.7 µM
TGI (SNB-75 CNS): 22.1 µM
TGI (DMS 114 small cell lung): 15.8 µM
